Experimental data published in patent US20180103668A1, “CYCLOHEXANECARBOXYLIC ACIDS FOR SELECTIVE TASTE MASKING” (INTERNATIONAL FLAVORS & FRAGRANCES INC., priority 2015, published 2018).

Columns and labels:
[1] = Sour taste-masking effect; conditions: 10 ppm in water; scale 0 to 10: 0=total masking, 2=intense masking, 5=moderate masking, 8=weak masking, 10=no masking; same in both lactic acid and citric acid
Experimental: (§1) A series of cyclohexanecarboxylic acid solutions in the following were prepared (10 ppm in water):
Lactic acid solution (0.09% by weight in water) and citric acid solution (0.07% by weight in water) were prepared and used, respectively, to evaluate the sour taste-masking effect of cyclohexanecarboxylic acids, which is expressed using an intensity scale of 0 to 10, where 0=total masking, 2=intense masking, 5=moderate masking, 8=weak masking and 10=no masking.

[2] = Bitter taste-masking effect; conditions: for Intensity Score (bitter taste-masking effect): 10 ppm in water, caffeine 0.07%, scale 0 to 10: 0=total masking, 2=intense masking, 5=moderate masking, 8=weak masking, 10=no masking; for bitter taste-masking effect (in words): 10 ppm, caffeine solution 0.07%
Experimental: as §1
Caffeine solution (0.07% by weight in water) was prepared and used to evaluate the bitter taste-masking effect of cyclohexanecarboxylic acids, which is expressed using an intensity scale of 0 to 10, where 0=total masking, 2=intense masking, 5=moderate masking, 8=weak masking and 10=no masking.

SMILES | Intensity Score (sour taste-masking effect) [1] | Intensity Score (bitter taste-masking effect) [2] | bitter taste-masking effect (in words) [2]
O=C(/C=C/c1ccc(O)c(O)c1)O[C@H]1[C@H](O)C[C@](O)(C(=O)O)C[C@H]1OC(=O)/C=C/c1ccc(O)c(O)c1 [Formula VI, (1R,3R,4S,5R)-3,4-bis[[3-(3,4-dihydroxyphenyl)-1-oxo-2-propen-1-yl]oxy]-1,5-dihydroxy-cyclohexanecarboxylic acid] | 8 | 2 | particularly intense and lasting bitter taste-masking effect
O=C(/C=C/c1ccc(O)c(O)c1)OC1C[C@@](O)(C(=O)O)C[C@@H](OC(=O)/C=C/c2ccc(O)c(O)c2)[C@@H]1O (stereo partly drawn) [Formula V, (1α,3R,4α,5R)-3,5-bis[[3-(3,4-dihydroxyphenyl)-1-oxo-2-propen-1-yl]oxy]-1,4-dihydroxy-cyclohexanecarboxylic acid] | 8 | 3 | particularly intense and lasting bitter taste-masking effect
O=C(/C=C/c1ccc(O)c(O)c1)O[C@@H]1[C@H](O)C[C@@](O)(C(=O)O)C[C@H]1OC(=O)/C=C/c1ccc(O)c(O)c1 [Formula IV, (1S,3R,4R,5R)-3,4-bis[[3-(3,4-dihydroxyphenyl)-1-oxo-2-propenyl]oxy]-1,5-dihydroxy-cyclohexanecarboxylic acid] | 8 | 2 | particularly intense and lasting bitter taste-masking effect
